From US7271158B2, “Treatment of rumen acidosis with α-amylase inhibitors” (Pfizer Inc., priority 2000, dated 2007)

How the values were obtained:
E. faecium = test: Minimum inhibitory concentrations in aerobes (agar dilution)
[1] = test system: rumen fluid fermentation (RUSITEC chronic acidosis model); test: RUSITEC rumen simulation, chronic acidosis model: acarbose; assay type: cell-based, Guernsey cow; details: for increase in butyrate production: between control and treatment periods (0 mg/vessel/d: 24%); for change in VFA production: treatment period vs preceding control period (0 mg/vessel/d: −3%)
From the text: Evaluation of Agents Using the Rumen Simulation Technique ([…]) to Model Chronic Acidosis. The in vitro rumen simulation technique ([…]), first described by Czerkawski and Breckenridge (1977) was used to evaluate the effect of the bacterial α-amylase and/or α-glucosidase inhibitor acarbose on daily pH profiles and VFA production using a commercial cattle concentrate ration (GH313-see later). […] Equipment: The apparatus consisted of two […] units each containing four-fermentation vessels. […] The feed was placed in a nylon bag (14×9 cm, 50 μm), and was gently agitated using a piston mechanism (8 strokes/min). Buffer (McDougall, 1948) was continuously infused at a rate of approximately 750 ml/day by an eight channel peristaltic pump (Watson Marlow). The effluent was collected in 1 liter glass bottles containing 20 ml of oxalic acid solution (12 g/100 ml in deionised water). This was added to inhibit further microbial activity Feed: Each vessel was fed daily with a bag containing 30 g of the commercial pelleted ration GH313 (89% dry matter) and 2.5 g barley straw (90% dry matter) chopped into 1-2 cm lengths. 7 g of corn starch (Sigma Cal. No. S4126) was added to the liquid phase of all fermenter vessels at feeding on the last four days of the experiment to simulate acute acidosis. Rumen fluid donor: Rumen fluid was collected from a five year old dry Guernsey cow. […] Rumen contents were collected via a rumen fistula (Bar Diamond Inc. P.O. Box. 60. Bar Diamond Lane. Parma. Id. 83660-0060. U.S.A) Vessel inoculation: Rumen contents were taken from the fistulated donor animal at 08:00 h (before the morning feed). The material was carried to the laboratory in pre-warmed insulated flasks, and then strained through four layers of cotton gauze into another pre-warmed insulated flask. 70 g of the solid residue were weighed into each of eight nylon bags. One bag containing rumen solids, and one bag containing fresh feed was placed in the feed chamber for each vessel. The liquid contents of each vessel were 100 ml deionised water, 200 ml of buffer artificial and 500 ml of rumen fluid. After assembling and sealing the vessels, they were placed in the water baths and the piston rod attached to the drive bar. The effluent tubes were placed in the collection flasks. The head space in each vessel was flushed with CO2 for 2 min., then the piston drive motor and buffer infusion pump were started. Daily maintenance and sampling procedure: These procedures were carried out at the same time each day. Eight feed bags were prepared, and a 1 l dispenser bottle containing infusion buffer warmed to 39° C. Treatment with acarbose: Acarbose was obtained as GlucobayTM tablets (Bayer, AAH Pharmaceuticals) Each tablet contains 100 mg acarbose. Duplicate vessels were treated with 0, 1, 10 and 100 mg/d of acarbose by adding 1 tablet to each of two feed bags to give 100 mg/vessel/d. The lower doses were prepared by dissolving/suspending a tablet in 10 ml buffer (giving a 10 mg/ml solution of acarbose). One ml of this solution was then added to 9 ml of buffer, giving a 1 mg/ml solution. One ml of each solution was then added to the contents of two feed bags, to give 10 and 1 mg/vessel/d. Finally, the acarbose was dried on to the feed by leaving the bags at room temperature overnight. Analyses: Dry matter losses from the nylon bags after 48 hours incubation were measured by drying the washed bag contents in an oven for 23 h at 65° C. Effluent samples (10 ml) were taken daily and stored at -20° C. for subsequent VFA and lactate analysis .pH was automatically recorded at 17 min. intervals using equipment supplied by Philip Harris Education. A combination electrode was fitted in each vessel via a gas-tight port in the lid. […] The recorded pH values were downloaded to a PC running […] 32 software (Philip Harris Education) and then transferred to a spreadsheet for further analysis. […]

E. coli = test: Minimum inhibitory concentrations in aerobes (agar dilution); assay type: cell-based; details: Escherichia coli
[2] = target: rumen fluid supernatant amylases; test: Rumen bacterial amylase assay, protocol 1 (Sigma amylase kit 577); assay type: biochemical, rumen bacteria, Hereford×Friesian calves; details: rumen fluid amylase screen using Sigma kit 577
From the text: Rumen Bacterial Amylase Assay—Protocol 1
The enzymatic reactions involved in the assay are as follows:
5 ET-G7PNP→(α-amylase)→2 ET-G5+2 G2PNP+2 ET-G4+2 G3PNP+ET-G3+G4-PNP2 G2PNP+2 G3 PNP→(α-glucosidase)→4 PNP +10 glucose
α-Amylase hydrolyses 4,6-ethylidene-G7-PNP (ET-G7 PNP) to G2, G3 and G4 PNP fragments. α-Glucosidase (α-1,4-glucan glucohydrolase EC 3.2.1.3) hydrolyses G2PNP and G3PNP to yield p-nitrophenol and glucose. Five moles of substrate (ET-G7PNP) is hydrolysed to yield 4 moles of p-nitrophenol p-Nitrophenol absorbs light as 405 nm, and following a two minute lag period the rate of increase in absorbance at 405 nm is directly proportional to α-amylase activity in the well.
Rumen fluid was collected from 4-month-old Hereford×Friesian calves (125–135 kg, supplied by Cwmnant Calves Ltd. Cwmnant. Tregaron. Ceredigion) fed on diet GH 313. The rumen fluid was collected from slaughtered calves into pre-warmed vacuum flasks, as soon as possible after euthanasia. It was then filtered through a double layer of absorbent gauze (Absorbent gauze BP, GAUZ 4 from Robert Bailey plc, Stockport) to remove hay and feed particles. The liquid was centrifuged at a relative centrifugal force of 23,300 for 60 minutes, and the supernatant decanted, avoiding contamination from the loose top layer of the pellet by careful pouring. The supernatant was then aliquoted into 50 ml plastic tubes and frozen at […]. When required for use in an assay the rumen fluid supernatant was thawed by standing the tubes in cold water. Test compounds or controls were dispensed into the 96-well assay plate at 4 μl/well. 100 μl per well of Sigma amylase reagent 577 (made up to half the volume described in the instructions (i.e. 10 ml for a 577-20 vial)) was then added to each well, followed by 100 μl per well of rumen fluid supernatant. A T=0 reading at 405 nm was taken at this stage using an Anthos plate reader. The plate was then incubated at room temperature or 37° C. until an optical density window of approximately 1.000U was seen (typically one hour at 37° C. or three hours at room temperature). A second reading was taken at 405 nm, and the first reading subtracted from it. Active compounds cause a reduction in the optical density readings when compared to the control without the agent being tested.

Structure (SMILES): CC1OC(OC2C(CO)OC(OC3C(CO)OC(O)C(O)C3O)C(O)C2O)C(O)C(O)C1NC1C=C(CO)C(O)C(O)C1O (stereo not shown) [Acarbose, acarbose]
- MIC (E. faecium; E. faecium 1.1.6): >128 µg/mL
- MIC (E. faecium; E. faecium 1.2.4): >128 µg/mL
- MIC (E. faecium; E. faecium 1.2.6): >128 µg/mL
- MIC (E. faecium; E. faecium 3.1): >128 µg/mL
- MIC (E. faecium; E. faecium 4.5): >128 µg/mL
- MIC (E. faecium; E. faecium 5.4): >128 µg/mL
- MIC (E. faecium; E. faecium 10.1): >128 µg/mL
- MIC (E. faecium; E. faecium 28.6.7): >128 µg/mL
- MIC (E. faecium; E. faecium 28.7.7): >128 µg/mL
- MIC (E. faecium; Enterococcus faecium): > 128 µg/mL
- increase in butyrate production ([1]; 1 mg/vessel/d): 27%
- change in VFA production ([1]; 1 mg/vessel/d): +3%
- increase in butyrate production ([1]; 10 mg/vessel/d): 76%
- change in VFA production ([1]; 10 mg/vessel/d): −10%
- increase in butyrate production ([1]; 100 mg/vessel/d): 134%
- change in VFA production ([1]; 100 mg/vessel/d): −16%
- MIC (E. coli; ATCC10418, E. coli ATCC 10418): > 128 µg/mL
- MIC (E. coli; E. coli E517): > 128 µg/mL
- IC50 [2]: 2030 nM
